# Laboratory results taken from US7462599B2, “Use of effectors of glutaminyl and glutamate cyclases” (Probiodrug AG, priority 2003, dated 2008).
# “And” between values parts separate entries of the source, which are not always exact repeats. Equal entries are not always repeated. “Also recorded” adds a separate entry of the source. Bridge positions count the residues as written; N and C are the ends. Square brackets hold non-standard residues; d marks the D form. Ends that are not written are not given here. Peptide text beside a SMILES is read from it. β3hQ = NC(=O)CC[C@H](N)CC(=O)O
# What was measured:
# QC [1] = molecular target: T1, QC (Homo sapiens, UniProt Q16769); test: Continuous spectrophotometric assay of substrate conversion, human QC;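 on all read-outs here: initial rates read at 30 °C in a microplate reader, with activity quantified against an ammonia calibration curve under the same assay conditions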; assay type: biochemical; design: The cDNA of the mature QC starting with codon 38 was fused in frame with the plasmid encoded 6× histidine tag; 6x histidine tag; made in house; host or cells: Pichia pastoris X33 (pPICZαB); also E. coli M15 (pQE-31); conditions: for Ki / Ki*: n.i. = no inhibition; for Ki*: for substrate inhibition
# T1 sequence (Q16769 29-361): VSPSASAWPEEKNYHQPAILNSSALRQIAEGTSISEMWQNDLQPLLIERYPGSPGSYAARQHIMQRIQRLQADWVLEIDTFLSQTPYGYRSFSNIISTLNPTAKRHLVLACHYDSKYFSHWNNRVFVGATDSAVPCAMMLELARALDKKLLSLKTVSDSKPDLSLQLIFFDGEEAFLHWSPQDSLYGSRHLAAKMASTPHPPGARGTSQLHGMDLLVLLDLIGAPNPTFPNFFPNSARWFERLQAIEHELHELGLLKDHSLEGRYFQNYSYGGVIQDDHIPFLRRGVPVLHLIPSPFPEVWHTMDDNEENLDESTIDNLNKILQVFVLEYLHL
# Description: The initial velocities were evaluated and the enzymatic activity was determined from a standard curve of ammonia under assay conditions. All samples were measured at 30° C., using either the [sequence]luor Plus or the Sunrise (both from TECAN) reader for microplates. Kinetic data was evaluated using GraFit software.
# QC [2] = molecular target: T1, QC; test: Inhibitor assay, human QC catalyzed reaction (Ki determination); assay type: biochemical; design: The cDNA of the mature QC starting with codon 38 was fused in frame with the plasmid encoded 6× histidine tag; 6x histidine tag; made in house; host or cells: Pichia pastoris X33 (pPICZαB); also E. coli M15 (pQE-31)
# QC [3] = molecular target: T1, QC; test: Fluorometric QC assay with pyroglutamyl aminopeptidase as auxiliary enzyme, human QC; assay type: biochemical; design: The cDNA of the mature QC starting with codon 38 was fused in frame with the plasmid encoded 6× histidine tag; 6x histidine tag; made in house; host or cells: Pichia pastoris X33 (pPICZαB); also E. coli M15 (pQE-31); conditions: for inhibition of human QC by the peptide: H-Gln-AMC as substrate; for conversion by human QC: analyzed fluorometrically
# Source text: Excitation/emission wavelengths were 320/410 nm.
# H-Glu(OMe)-βNA and H-Glu-βNA.
# QC [4] = molecular target: T1, QC; test: Discontinuous method for QC kinetic parameters; assay type: biochemical
# QC [5] = molecular target: T1, QC; test: Enzyme inactivation/reactivation of human QC; assay type: biochemical; design: The cDNA of the mature QC starting with codon 38 was fused in frame with the plasmid encoded 6× histidine tag; 6x histidine tag; made in house; host or cells: Pichia pastoris X33 (pPICZαB); also E. coli M15 (pQE-31)
# mammalian QC = conditions: Busby et al. 1987; cited from earlier work
# QC [6] = molecular target: T1, QC; test: MALDI-TOF qualitative substrate conversion, human QC; assay type: biochemical; design: The cDNA of the mature QC starting with codon 38 was fused in frame with the plasmid encoded 6× histidine tag; 6x histidine tag; made in house; host or cells: Pichia pastoris X33 (pPICZαB); also E. coli M15 (pQE-31)
# Description: Matrix-assisted laser desorption/ionization mass spectrometry was carried out using the Hewlett-Packard G2025 LD-TOF System with a linear time of flight analyzer. […] Samples (5 μl) were mixed with equal volumes of the matrix solution. For matrix solution we used DHAP/DAHC, prepared by solving 30 mg 2′,6′-dihydroxyacetophenone (Aldrich) and 44 mg diammonium hydrogen citrate (Fluka) in 1 ml acetonitrile/0.1% TFA in water (1/1, v/v). A small volume (≈1 μl) of the matrix-analyte-mixture was transferred to a probe tip and immediately evaporated in a vacuum chamber (Hewlett-Packard G2024A sample prep accessory) to ensure rapid and homogeneous sample crystallization.
# In order to further investigate the specificity and selectivity of the QCs, peptides were synthesized comprising either a modified N-terminal glutaminyl residue or a modified amino acid in the second position. […] Due to the cyclization of the glutaminyl residue or its analog, respectively, a mass difference of the substrate and the product of catalysis is detected. In cases of ammonia liberation of one mole per mole of substrate, the conversion was also analyzed quantitatively using the spectrophotometric assay.
# [7] = Description: H-Glu(OMe)-βNA and H-Glu-βNA. […] These fluorogenic substrates were analyzed fluorometrically, utilizing pyroglutamyl aminopeptidase as auxiliary enzyme.
# [8] = 0.05 M Tris-HCl, pH 8.0, 0.5 M KCl
# [9] = recombinant human QC, buffer containing 1% DMSO
compound,measurement,setting,value
NC(=O)CC[C@H](N)C(=O)O [H-Gln-OH],KM,"QC [1]; Table 6, n.r. = not reactive",n.r.
same,kcat,"QC [1]; Table 6, n.r. = not reactive",n.r.
O=C1CNC(=S)N1CCCn1ccnc1 [3-[3-(1H-imidazol-1-yl)propyl]-2-thioxoimidazolidin-4-one],Ki,"QC [2]; 30° C., 0.05 M Tris-HCl pH 8.0, 5 mM EDTA",810 ± 10 nM
C[C@H](NC(=O)[C@@H](N)CCC(N)=O)C(N)=O [H-Gln-Ala-NH2] (H-Gln-Ala-NH2),kcat,"QC [1]; Table 7, substrate length",40.1 ± 0.9 s⁻¹
COC(=O)CC[C@H](N)C(=O)N[C@@H](Cc1ccccc1)C(=O)N[C@@H](CCCCN)C(=O)N[C@@H](CCCNC(=N)N)C(=O)N[C@@H](CC(C)C)C(=O)N[C@@H](C)C(N)=O [H-Glu(OMe)-Phe-Lys-Arg-Leu-Ala-NH2] (H-E(OMe)FKRLA-NH2),inhibition of human QC by the peptide,QC [3],not inhibited
Cn1cnc(CCN)c1 [1-methyl-4-(β-aminoethyl)-imidazole],inhibition of human QC,QC [2],complete loss of inhibitory activity
same,Ki value,"QC [2]; Table 4, n.i. = no inhibition",n.i.
C[C@H](NC(=O)[C@@H](N)CCC(N)=O)C(=O)O [H-Gln-Ala-OH] (H-Gln-Ala-OH),Km,QC [1],232 ± 5 µM
same,kcat,"QC [1]; 0.05 M Tris-HCl, pH 8.0",54.4 ± 0.5 s⁻¹
same,kcat,QC [1]; [8],47.6 ± 0.6 s⁻¹
same,Ki,QC [1]; [8],n.i.
same,Ki,"QC [1]; 0.05 M Tris-HCl, pH 8.0",n.i.
same,Ki*,QC [1]; Table 6,n.i.
same,kcat,"QC [1]; Table 6, n.r. = not reactive",57.2 ± 0.4 s⁻¹
same,Km,QC [1]; pH 8,269 µM and 357 µM
NC(=O)CC[C@H](NC(=O)[C@@H](N)CCC(N)=O)C(=O)O [H-Gln-Gln-OH] (H-Gln-Gln-OH),Km,QC [4],175 ± 18 µM
same,kcat,QC [4]; discontinuous method,21.3 ± 0.6 s⁻¹
same,Km,QC [1],148 ± 5 µM
same,Ki*,QC [1]; Table 6,n.i.
same,kcat,"QC [1]; Table 6, n.r. = not reactive",20.7 ± 0.2 s⁻¹
Cc1cc(=O)oc2cc(NC(=O)[C@@H](N)CCC(N)=O)ccc12 [H-Gln-AMC],Km,"QC [1]; Table 6, n.r. = not reactive",54 ± 2 µM
same,kcat,"QC [1]; Table 6, n.r. = not reactive",5.3 ± 0.1 s⁻¹
Oc1cccc2cccnc12 [8-hydroxyquinoline],inhibition of human QC catalyzed substrate cyclization by chelators,QC [5],abolished
H-QAAAA-NH2 [H-Gln-Ala-Ala-Ala-Ala-NH2],Km,"QC [1]; Table 7, substrate length",65 ± 3 µM
same,kcat,"QC [1]; Table 7, substrate length",60.5 ± 0.7 s⁻¹
O=C(O)c1cccc(C(=O)O)n1 [dipicolinic acid],inactivation of human QC after extensive dialysis,QC [5],almost completely inactivated
same,inhibition of human QC catalyzed substrate cyclization by chelators,QC [5],abolished
[Gln^1]-GnRH: GnRH with N-terminal glutamine: QHWSYGL RP(G) amide,Km,QC [1]; Table 1,53 ± 3 µM
same,kcat,QC [1]; Table 1,69.2 ± 1.1 s⁻¹
CC(C)(C)OC(=O)C(N)CCC(N)=O (stereo not drawn) [H-Gln-OtBu],Ki*,QC [1]; Table 6,n.i.
same,Km,"QC [1]; Table 6, n.r. = not reactive",1240 ± 74 µM
same,kcat,"QC [1]; Table 6, n.r. = not reactive",6.7 ± 0.2 s⁻¹
O=C(O)CN(CCN(CC(=O)O)CC(=O)O)CC(=O)O [EDTA],inhibition of mammalian QC,mammalian QC,did not inhibit
same,inhibition of human QC catalyzed substrate cyclization by chelators,QC [5],did not show remarkable inhibition
H-EFKRLA-NH2 [H-Glu-Phe-Lys-Arg-Leu-Ala-NH2],inhibition of human QC by the peptide,QC [3],not inhibited
NC(=O)CC[C@H](N)C(=O)N[C@@H](Cc1ccc(O)cc1)C(=O)O [H-Gln-Tyr-OH] (H-Gln-Tyr-OH),Km,QC [1],211 ± 5 µM
same,Ki*,QC [1]; Table 6,n.i.
same,kcat,"QC [1]; Table 6, n.r. = not reactive",94 ± 1 s⁻¹
O=S(=O)([O-])[O-].[Zn+2] [ZnSO4],restoration of QC activity after inactivation,QC [5]; metal ion incubation in presence of 0.5 mM EDTA,Near-total restoration
H-Gln-Lys(Gln)-Arg-Leu-Ala-NH2 (H-QK(Gln)RLA-NH2; SMILES CC(C)C[C@H](NC(=O)[C@H](CCCNC(=N)N)NC(=O)[C@H](CCCCNC(=O)[C@@H](N)CCC(N)=O)NC(=O)[C@@H](N)CCC(N)=O)C(=O)N[C@@H](C)C(N)=O) [H-Gin-Lys(Gln)-Arg-Leu-Ala-NH2],conversion by human QC,QC [6],converted
c1ccc(-n2ccnc2)cc1 [1-phenylimidazole],inhibition of human QC,QC [2],inactive under the experimental conditions
NC(=O)CC[C@H](N)C(=O)Nc1ccc2ccccc2c1 [H-Gln-βNA],first-order rate constant of nonenzymatic pGlu-formation,"[7]; pH 6.0, followed for 4 weeks",1.2*10^−7 s^−1
same,kcat,QC [1],20.6 ± 0.5 s⁻¹
same,kcat,QC [1]; pH 8,21.7 ± 0.5 s⁻¹ and 20.0 ± 0.4 s⁻¹
reduced 6-methylpterin,inhibition of mammalian QC,mammalian QC,Inhibition of a mammalian QC was only detected
H-Gln-cyclo(Nε-Lys-Arg-Pro-Ala-Gly-Phe) (H-QKRPAGF; lactam 2-C; SMILES C[C@@H]1NC(=O)[C@@H]2CCCN2C(=O)[C@H](CCCNC(=N)N)NC(=O)[C@@H](NC(=O)[C@@H](N)CCC(N)=O)CCCCNC(=O)[C@H](Cc2ccccc2)NC(=O)CNC1=O),Km,QC [1],240 ± 14 µM
same,kcat (turnover number),QC [1],22.8 ± 0.6 s⁻¹
H-Gln(NMe)-Phe-Lys-Ala-Glu-NH2 (H-QFKAE-NH2; not fully specified (residue 1); printed as H-Gln(NMe)-Phe-Lys-Ala-Glu-NH2),conversion by human QC,QC [6],not recognized by human QC; also recorded: No substrate conversion was observed
same,inhibition of human QC by the peptide,QC [3],not detected
"COC(=O)CC[C@H](N)C(=O)Nc1ccc2ccccc2c1 [H-Glu(OMe)-βNA, H-Glu(OMe)-β-naphthylamide]",stability in Tris and Tricine buffers (non-enzymatically catalyzed cyclization),[7],remarkable instability
same,conversion by human QC,QC [3],Neither of these compounds were converted
"N[C@@H](CCC(=O)O)C(=O)Nc1ccc2ccccc2c1 [Glu-βNA, H-Glu-βNA]","limiting rate constant for nonenzymatic turnover (estimate, no product formed)","[7]; pH 6.0, 4 weeks",≤ 1e-09 s⁻¹
same,conversion by human QC,QC [3],Neither of these compounds were converted
H-βhomoGln-Phe-Lys-Arg-Leu-Ala-NH2 (H-[β3hQ]FKRLA-NH2; SMILES CC(C)C[C@H](NC(=O)[C@H](CCCNC(=N)N)NC(=O)[C@H](CCCCN)NC(=O)[C@H](Cc1ccccc1)NC(=O)C[C@@H](N)CCC(N)=O)C(=O)N[C@@H](C)C(N)=O),Km,QC [1],2500 ± 200 µM
same,fold reduced efficiency of cyclization compared to peptides of similar size with N-terminal glutaminyl residue,QC [1],approximately 1000 fold
same,kcat (turnover number),QC [1],3.5 ± 0.1 s⁻¹
H-QAASAA-NH2 [H-Gln-Ala-Ala-Ser-Ala-Ala-NH2],Km,"QC [1]; Table 7, substrate length",79 ± 6 µM
same,kcat,"QC [1]; Table 7, substrate length",55.3 ± 1.6 s⁻¹
C[C@H](NC(=O)[C@H](C)NC(=O)[C@@H](N)CCC(N)=O)C(N)=O [H-Gln-Ala-Ala-NH2] (H-Gln-Ala-Ala-NH2),kcat,"QC [1]; Table 7, substrate length",76.3 ± 0.7 s⁻¹
NC(=O)CC[C@H](N)C(=O)N[C@@H](CCC(=O)O)C(=O)O [H-Gln-Glu-OH] (H-Gln-Glu-OH),kcat,"QC [1]; 0.05 M Tris-HCl, pH 8.0",21.4 ± 0.3 s⁻¹
same,kcat,QC [1]; [8],18.9 ± 0.5 s⁻¹
same,Ki,QC [1]; [8],n.i.
same,Ki,"QC [1]; 0.05 M Tris-HCl, pH 8.0",n.i.
same,Ki*,QC [1]; Table 6,n.i.
same,kcat,"QC [1]; Table 6, n.r. = not reactive",24.7 ± 0.2 s⁻¹
same,Km,QC [1]; pH 8,373 µM and 607 µM
CC(C)[C@H](NC(=O)[C@@H](N)CCC(N)=O)C(=O)O [H-Gln-Val-OH] (H-Gln-Val-OH),Km,QC [1],196 ± 5 µM
same,Ki*,QC [1]; Table 6,n.i.
same,kcat,"QC [1]; Table 6, n.r. = not reactive",17.2 ± 0.1 s⁻¹
QFRHDSGYEVHHQKLVFFA-NH2 [[Gln^3]Aβ3-21a],Km,QC [1]; [9],162 ± 12 µM
same,kcat,QC [1]; [9],62 ± 3 s⁻¹
NC(=O)CC[C@H](N)C(N)=O [H-Gln-NH2],Km,"QC [1]; 0.05 M Tris-HCl, pH 8.0",442 ± 30 µM
same,kcat,"QC [1]; 0.05 M Tris-HCl, pH 8.0",12.8 ± 0.3 s⁻¹
same,kcat,QC [1]; [8],12.2 ± 0.1 s⁻¹
same,Ki,QC [1]; [8],n.i.
same,Ki,"QC [1]; 0.05 M Tris-HCl, pH 8.0",n.i.
same,Ki*,QC [1]; Table 6,n.i.
same,kcat,"QC [1]; Table 6, n.r. = not reactive",12.8 ± 0.5 s⁻¹
